Broadly, the CC50 is the concentration at which the toxic effect on the cells reaches its halfway point. Higher therefore signals lower toxicity to the cells. The term IC50 denotes the point on the concentration scale where inhibition reaches its midpoint.

The results in this text go back to ChEMBL document CHEMBL5620440, “Anti-trypanosomal Lignans Isolated from Salvadoran Peperomia pseudopereskiifolia” (J Nat Prod, 2024).

Activity calls are given as the source filed them. The calls are words filed in the database; no cut-off is given here.

A short description of series [1]: Cytotoxicity against human HT-1080 cells assessed reduction in cell viability. Format: toxicity, cell-based.
Series [2] is described as follows: Selectivity index, ratio of CC50 for cytotoxicity for human HT-1080 cells to IC50 for antitrypanosomal activity against Trypanosoma cruzi Tulahuen infected in human HT-1080 cells. Format: toxicity, cell-based. The following applies: read-out: Ratio CC50/IC50.
Series [3] concerns Trypanosoma cruzi. The experiment in a line: Antitrypanosomal activity against Trypanosoma cruzi Tulahuen amastigotes infected in human HT-1080 cells assessed as reduction in parasite growth by microscopic analysis. Format: functional, organism-based.
In series [4] the test system is Trypanosoma cruzi. The experiment in a line: Potency index, ratio of benznidazole IC50 to test compound IC50 for antitrypanosomal activity against Trypanosoma cruzi Tulahuen amastigotes infected in human HT-1080 cells assessed as reduction in parasite growth by microscopic analysis. The format is functional.

Take `O=C(Cn1ccnc1[N+](=O)[O-])NCc1ccccc1` [BENZNIDAZOLE]: the CC50 in series [1] is over 100 µM. Further, in series [2], the selectivity ratio is over 90.9. The IC50 in series [3] stood at 1.1 µM.

Turning to `COc1c([C@H]2OC[C@H]3[C@H]2CO[C@@H]3c2ccc3c(c2)OCO3)ccc2c1OCO2`, the CC50 in series [1] is over 100 µM. For the same compound, in series [4], the “Ratio IC50” value was about 3. The selectivity ratio in series [2] was over 250. The IC50 in series [3] came to 0.4 µM.

In turn, `CCOc1ccc([C@@H]2OC[C@H]([C@H](O)c3ccc(OC)c(OC)c3)[C@H]2COC(C)=O)cc1OC` displayed a CC50 in series [1] of over 100 µM. Moreover, in series [2], the selectivity ratio was over 30.3. Besides, the IC50 in series [3] is 3.3 µM.

With `COc1ccc([C@@H](O)[C@H]2CO[C@@H](c3ccc(OC)c(OC)c3)[C@@H]2CO)cc1OC`, in series [3], the result was inactive.

In the case of `CCOc1ccc([C@@H]2OC[C@H](C(=O)c3ccc(OC)c(OC)c3)[C@H]2COC(C)=O)cc1OC`, in series [3], the outcome was inactive.

In series [1], `COc1ccc([C@@H](O)[C@H]2CO[C@@H](c3ccc(OC)c(OC)c3)[C@@H]2COC(C)=O)cc1OC` displayed a CC50 of over 100 µM. Also, the selectivity ratio in series [2] is over 9.52. In addition, in series [3], the IC50 worked out at 10.5 µM.

Consider `COc1cc([C@@H]2OC[C@H]([C@H](O)c3ccc(OC)c(OC)c3)[C@H]2CO)ccc1O`, for which the result in series [3] was inactive.

As to `COc1cc([C@@H]2OC[C@H]([C@H](O)c3ccc(OC)c(OC)c3)[C@H]2COC(C)=O)ccc1O`, the outcome in series [3] was inactive.

For `COc1ccc([C@@H](O)[C@H]2CO[C@@H](c3ccc(OCc4ccccc4)c(OC)c3)[C@@H]2COC(C)=O)cc1OC`, the CC50 in series [1] is over 100 µM. Also, the selectivity ratio in series [2] is over 35.7. Further, the IC50 in series [3] is 2.8 µM.
